Reference: ChEMBL document CHEMBL5576153, “Synthesis of diversely substituted pyridin-2(1H)-ones and in vivo evaluation of their anti-allodynic effect on cutaneous inflammatory mechanical allodynia” (2024)
Calls of active or inactive are those of the source. The rule behind the calls is not given here.

System: Rattus norvegicus
Experiment: Anti-allodynic activity in rat model of capsaicin-induced inflammatory paw pain assessed as inhibition of mechanical allodynia at 5 uM administered intrathecally 30 mins prior to capsaicin induction and measured at 10 mins interval for 65 mins by von frey test relative to control
Format: functional
Conditions: for inhibition: time 95.0 min; for inhibition in vivo at 5 µM: central, 1.583 h, time 95 min

Structure (SMILES) | inhibition | inhibition in vivo at 5 µM [%]
CCN(CC)CCCCn1ccc2c(-c3cc(Nc4ccncc4)c[nH]c3=O)cccc21 | inactive | –
O=c1[nH]cc(Oc2ccc([N+](=O)[O-])cc2)cc1-c1cccc2[nH]ccc12 | Active | –
O=C(Nc1c[nH]c(=O)c(-c2cccc3[nH]ccc23)c1)c1ccncc1 | Active | –
COc1ncc(Nc2ccncc2)cc1-c1cccc2[nH]ccc12 | – | 85
O=C(Nc1c[nH]c(=O)c(-c2cccc3[nH]ccc23)c1)c1ccc([N+](=O)[O-])cc1 | – | 58
O=C(Nc1c[nH]c(=O)c(-c2cccc3[nH]ccc23)c1)C1CCNCC1 | Active | –
CCN(CC)CCCn1ccc2c(-c3cc(Nc4ccncc4)c[nH]c3=O)cccc21 | inactive | –
Cn1ccc2c(-c3cc(Nc4ccncc4)c[nH]c3=O)cccc21 | inactive | –
O=c1[nH]cc(Oc2ccncc2)cc1-c1cccc2[nH]ccc12 | Active | –
CN(c1ccncc1)c1c[nH]c(=O)c(-c2cccc3[nH]ccc23)c1 | Active | –
O=c1[nH]cc(OC2CCNCC2)cc1-c1cccc2[nH]ccc12 | – | 64
O=c1[nH]cc(Nc2ccncc2)cc1-c1cccc2[nH]ccc12 | – | 56
